Test results published in patent US9498466B2, “Pyrrole inhibitors of S-nitrosoglutathione reductase as therapeutic agents” (Nivalis Therapeutics, Inc., priority 2008, dated 2016).

Key:
OVA sensitized mice = assay: GSNOR inhibition assay in an in vivo animal model: OVA mouse model of asthma, methacholine challenge, Penh; conditions: 1 mg/kg, 10 mg/kg or 30 mg/kg intravenously at 24 hours prior
Description: In an effort to determine if similar observations would manifest if GSNOR were inhibited pharmacologically by a GSNOR inhibitor, an OVA mouse model (i.e., the wild-type model of Que et al.) was used. In this study, OVA sensitized mice were administered 1 mg/kg, 10 mg/kg or 30 mg/kg of Compound 1 intravenously at 24 hours prior to being placed in a whole body plethysmograph (Buxco Research Systems, Wilmington, N.C.) and provided with fresh air.
Subject animals were then challenged with an aerosol of increasing dosages of the bronchoconstrictive agent methacholine, a pharmacologic agent commonly used in determining the degree of bronchial hyper-reactivity in experimental subjects. In this study mice were exposed to an increasing concentration of methacholine, each dose being presented for 3 minutes, during which time readings were taken. Doses of methacholine were 0 mg/ml, 5 mg/ml, 20 mg/ml, and 50 mg/ml. The degree of bronchial hyper-reactivity was measured as the ‘Enhanced Pause’ (Penh), a unit-less index of airway hyper-reactivity (Dohi et al., Lab Invest. 79(12):1559-1571, 1999).

[1] = system: mouse model of ovalbumin (OVA)-induced asthma; assay: Experimental asthma model: pulmonary function testing (Penh) after MCh challenge; format: in vivo; conditions: read-out: area under the curve (AUC) for Penh response reported as percent of vehicle control
Description: A mouse model of ovalbumin (OVA)-induced asthma was used to screen GSNOR inhibitors for efficacy against methacholine (MCh)-induced bronchoconstriction/airway hyper-reactivity. […] Efficacy of GSNOR inhibitors were assessed using a prophylactic protocol in which GSNOR inhibitors were administered prior to challenge with MCh. Bronchoconstriction in response to challenge with increasing doses of MCh was assessed using whole body plethysmography (Penh; Buxco). […] The effect of GSNOR inhibitors were compared to vehicles and to Combivent (inhaled; IH) as the positive control. […]
In vivo airway responsiveness to methacholine was measured 24 h after the last OVA challenge in conscious, freely moving, spontaneously breathing mice with whole body plethysmography using a Buxco chamber (Wilmington, N.C.). […] The degree of bronchoconstriction was expressed as enhanced pause (Penh), a calculated dimensionless value, which correlates with the measurement of airway resistance, impedance, and intrapleural pressure in the same mouse. Penh readings were taken and averaged for 4 min. after each nebulization challenge. Penh was calculated as follows: Penh enh=[(Te/Tr−1)×(PEF/PIF)], where Te is expiration time, Tr is relaxation time, PEF is peak expiratory flow, and PIF is peak inspiratory flow×0.67 coefficient. […]

SMILES | broncho-constrictive responses to methacholine (Penh) compared with vehicle-only dosed animals (OVA sensitized mice) | response vs control in vivo at 0.1 mg/kg ([1]; single IV dose of 0.1 mg/kg at 24 h prior to MCh) [%] | response vs control in vivo at 1 mg/kg ([1]; single IV dose of 1 mg/kg at 24 h prior to MCh) [%]
Cc1cc(C(N)=O)ccc1-n1c(CCC(=O)O)ccc1-c1ccc(-n2ccnc2)cc1 [Compound 1, 3-(5-(4-(1H-imidazol-1-yl)phenyl)-1-(4-carbamoyl-2-methylphenyl)-1H-pyrrol-2-yl)propanoic acid] | lower broncho-constrictive responses | – | –
Cc1cc(C(N)=O)ccc1-n1c(CCC(=O)O)ccc1-c1ccc(Br)cc1 [Compound 7, 3-(5-(4-bromophenyl)-1-(4-carbamoyl-2-methylphenyl)-1H-pyrrol-2-yl)propanoic acid] | – | 56.1 ± 2.2 | 50.4 ± 3.7
